In patent publication US8227468B2, “Cathepsin S inhibitor compounds” (Eli Lilly and Company, priority 2010, dated 2012):

What was measured:
human cathepsin B = human cathepsin B (Homo sapiens, UniProt P07858); experiment: human cathepsin B enzyme inhibitor (selectivity) assay; format: biochemical
Method: (§1) Potency assays for human cathepsin S and mouse cathepsin S and selectivity assays for human cathepsins L, B, K, V, and F are described below. The experimental conditions and/or materials of each assay differ slightly and therefore such differences are noted either directly within the general assay conditions or coded according to the respective enzyme assay using designations 1a through 1 g in Table 1 immediately following the general assay conditions.
(§2) Test compounds are prepared in DMSO to make up a 10 mM stock solution. The stock solution is serially diluted in DMSO to obtain a ten-point dilution curve with a final compound concentration range 1a in a 96-well round-bottom plate before conducting the in vitro enzymatic assay.
(§3) Amount 1c of substrate, benzyloxycarbonyl-L-leucyl-L-arginine-4-methyl-coumaryl-7-amide (Peptide Institute), prepared in assay buffer, is added to each well of the plate for a final concentration 1d. Amount 1e of the respective enzyme, described immediately hereafter, prepared in assay buffer is added to each well of the plate containing substrate and test compound resulting in a final concentration 1f to initiate the reaction. • Human cathepsins S, L, K, and V: Obtained from Calbiochem. • Mouse cathepsin S: Briefly, mouse cathepsin S is cloned in baculovirus using a mCathepsin S-pAN51(T760) construct containing a histidine tag. […]

human cathepsin V = molecular target: T1, human cathepsin V (Homo sapiens, UniProt O60911); experiment: human cathepsin V enzyme inhibitor (selectivity) assay; format: biochemical
T1 construct: purchased Calbiochem
T1 sequence (O60911 114-334): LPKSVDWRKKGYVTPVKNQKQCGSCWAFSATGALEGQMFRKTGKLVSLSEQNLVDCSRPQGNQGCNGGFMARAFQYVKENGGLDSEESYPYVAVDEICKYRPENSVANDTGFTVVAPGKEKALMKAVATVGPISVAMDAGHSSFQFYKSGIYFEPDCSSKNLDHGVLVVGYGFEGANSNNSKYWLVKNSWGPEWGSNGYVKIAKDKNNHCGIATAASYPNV
Method: as §1, §2, §3

human cathepsin L = molecular target: T2, human cathepsin L (Homo sapiens, UniProt P07711); experiment: human cathepsin L enzyme inhibitor (selectivity) assay; format: biochemical
T2 construct: purchased Calbiochem
T2 sequence (P07711 114-333): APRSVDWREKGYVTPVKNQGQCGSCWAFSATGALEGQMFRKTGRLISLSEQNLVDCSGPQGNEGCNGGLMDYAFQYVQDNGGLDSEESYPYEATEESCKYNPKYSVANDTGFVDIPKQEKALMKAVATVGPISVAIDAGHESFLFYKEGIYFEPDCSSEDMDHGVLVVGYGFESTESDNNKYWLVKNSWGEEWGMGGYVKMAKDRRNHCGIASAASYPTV
Method: as §1, §2, §3

mouse cathepsin S = molecular target: T3, mouse cathepsin S (Mus musculus, UniProt O70370); experiment: mouse cathepsin S enzyme inhibitor assay; format: biochemical
T3 construct: histidine tag; made in house
Method: as §1, §2, §3

human cathepsin K = molecular target: T4, human cathepsin K (Homo sapiens, UniProt P43235); experiment: human cathepsin K enzyme inhibitor (selectivity) assay; format: biochemical
T4 construct: purchased Calbiochem
T4 sequence (P43235 115-329): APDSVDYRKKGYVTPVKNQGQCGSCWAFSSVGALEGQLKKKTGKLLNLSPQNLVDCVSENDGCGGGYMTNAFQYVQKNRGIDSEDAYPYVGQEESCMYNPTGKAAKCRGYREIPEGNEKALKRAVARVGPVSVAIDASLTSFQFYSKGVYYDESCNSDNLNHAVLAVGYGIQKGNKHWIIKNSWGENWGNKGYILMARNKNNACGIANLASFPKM
Method: as §1, §2, §3

p10 in PWBC = experiment: p10 Accumulation Assay; format: in vivo, mouse; details: 4 hr.; for In vivo relative p10 accumulation in PWBC: mice, relative to vehicle, normalized with tubulin, mean ± SD
Method: After 4 hr., whole blood (300-500 μL) is drawn from each mouse. The step of removing red blood cells is performed by adding one mL Flow Cytometry Lysing Solution™ (Santa Cruz Biotechnology, Inc.), keeping at room temperature for 10 min., centrifuging at 4000 rpm for 5 min. and then discarding the supernatant. This step is repeated once to remove the red blood cells completely. The PWBC pellet is resuspended with 50 μL CytoBuster™ Reagent (Novagen) and sonicated at high power for 5-10 sec.
The p10 amount is determined using a Western blot. […] Gels are run at 120 V for 60 min. with the NUPAGE® MES SDS running buffer (Invitrogen). Proteins are transferred to 0.2 μm nitrocellulose (BIO-RAD) at 100 V for 30 min. with NUPAGE® Transfer Buffer (Invitrogen) and 20% methanol (EMD). Blot is briefly rinsed with PBS and blocked in 10 mL in ODYSSEY® Blocking Buffer (LI-COR Biosciences) at room temperature for 60 min. For p10, the blot is incubated with primary antibody against mouse CD74 (1 μg/ml of rat anti-CD74 antibody)(BD Bioscience) in blocking buffer at 4° C. overnight. For tubulin control, the blot is incubated with rabbit anti-beta tubulin pAb (0.2 μg/ml)(Abcam) in blocking buffer at 4° C. overnight. The blot is washed with washing buffer (DPBS from HyClone) with 0.01% polysorbate 20 four times for 10 min. each. The blot is then incubated with secondary antibody at room temperature for 60 min. For p10, ALEXA FLUOR® 680 goat anti rat IgG (1:5000 dilution)(Invitrogen) is used. For tubulin, ALEXA FLUOR® 680 goat anti rabbit IgG (1:5000 dilution)(Invitrogen). The blot is again washed as described above and placed in PBS for scanning.
The images are captured by scanning on an ODYSSEY® Infrared Imager (LI-COR Biosciences). The p10 amount is analyzed with ODYSSEY® software and normalized with the tubulin amount. The data are statistically analyzed with JMP® 7 software (Cary, N.C.). Values are represented as means±standard deviation.

human cathepsin S = molecular target: T5, human cathepsin S (Homo sapiens, UniProt P25774); experiment: human cathepsin S enzyme inhibitor assay; format: biochemical
T5 construct: purchased Calbiochem
T5 sequence (P25774 115-331): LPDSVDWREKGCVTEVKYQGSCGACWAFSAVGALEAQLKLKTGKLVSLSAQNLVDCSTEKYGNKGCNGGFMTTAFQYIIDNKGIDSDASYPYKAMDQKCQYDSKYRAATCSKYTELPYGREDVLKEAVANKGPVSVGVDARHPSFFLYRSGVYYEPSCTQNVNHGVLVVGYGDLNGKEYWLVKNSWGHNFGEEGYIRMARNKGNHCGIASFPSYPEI
Method: as §1, §2, §3

[1] = tested on: CaCl2-induced AAA (aortic luminal perimeter); experiment: CaCl2-induced AAA Animal Efficacy Model; format: in vivo, mouse; details: for In Vivo Percentage (%) Reduction of AAA: 129SvEv mice, aortic luminal perimeter by ultrasound, mean ± SD
Method: The first dose is given one day prior to surgery (p.m.) and the second dose is given the morning of surgery. […] B.i.d. dosing (a.m. and p.m.) is continued the day after surgery for 28 days. On the day of surgery, animals received analgesia ([…]®, 0.1 mg/kg) subcutaneously 10 min. pre-operatively and 3 hr. post-operatively. Mice are anesthetized by inhalation of 2% isoflurane and a laparotomy is performed. The abdominal aorta is exposed by retracting the bowel laterally with a surgical retractor and leaving the bowel in the abdominal cavity. […] Once isolated, the region of interest of the abdominal aorta is wrapped with a premeasured sterile cotton gauze soaked in 0.25 M aqueous CaCl2 solution. In sham control animals, 0.9% saline is substituted for CaCl2. After 7 min., the gauze is removed and a second CaCl2 soaked gauze (or 0.9% saline soaked gauze in sham animals) is applied. Following a second 7 minute period, the gauze is removed, the aorta is rinsed with 0.9% saline and the abdomen is closed. […] After 4 weeks of dosing as described above, the aortic luminal perimeter, area and diameter of the aortic segments that were wrapped with gauze are determined by ultrasound (Biosound Ultrasound-7.5 MHz) and statistically analyzed with JMP® 7 software (Cary, N.C.).

SMILES: CNC(=O)O[C@H]1CCc2ccc(N3CCN(C4COC4)CC3)cc2[C@@H]1NC(=O)c1ccc(F)cc1 [Example 2, [(1S,2S)-1-[(4-Fluorobenzoyl)amino]-7-[4-(oxetan-3-yl)piperazin-1-yl]tetralin-2-yl] N-methylcarbamate]
- IC50 (human cathepsin B): ~94 µM
- IC50 (human cathepsin V): > 100 µM
- IC50 (human cathepsin L): > 167 µM
- IC50 (mouse cathepsin S): ~0.0039 µM
- IC50 (human cathepsin K): > 100 µM
- In vivo relative p10 accumulation in PWBC (p10 in PWBC; 3 mg/kg oral gavage): 1.1 ± 0.7 fold increase
- In vivo relative p10 accumulation in PWBC (p10 in PWBC; 10 mg/kg oral gavage): 2.2 ± 1.3 fold increase
- In vivo relative p10 accumulation in PWBC (p10 in PWBC; 30 mg/kg oral gavage): 4.6 ± 1.2 fold increase
- effect on p10 in PWBC (in words) (p10 in PWBC; 3-30 mg/kg oral): dose dependently increase p10 in PWBC
- IC50 (human cathepsin S): ~0.0102 µM
- In Vivo Percentage (%) Reduction of AAA ([1]; 1 mg/kg oral gavage b.i.d. 4 weeks): 11 ± 7%
- In Vivo Percentage (%) Reduction of AAA ([1]; 3 mg/kg oral gavage b.i.d. 4 weeks): 32 ± 9%
- In Vivo Percentage (%) Reduction of AAA ([1]; 10 mg/kg oral gavage b.i.d. 4 weeks): 43 ± 9%
- In Vivo Percentage (%) Reduction of AAA ([1]; 30 mg/kg oral gavage b.i.d. 4 weeks): 52 ± 7%
- effect on aortic luminal perimeter (in words) ([1]; 1-30 mg/kg oral b.i.d. 4 weeks): reduce the aortic luminal perimeter in a dose-dependent manner
